Laboratory results as given in article PMC12993615 (The journal of pain, 2024).

Tests used:
[1] = Terminal plasma levels, OIPN prevention study; assay type: in vivo, male Sprague Dawley rats
Source text: (§1) Pain measurements were made on Days 5/6 (when neuropathy has normally developed) and at the end of the study. […] Terminal plasma samples were taken for bioanalysis and proteomics (Somalogic). Brain regions involved in pain processing, that is, prefrontal cortex (PFC), periaqueductal grey (PAG), whole spinal cords (SC), and L4-L6 dorsal root ganglia, were collected for lipidomic and genomic (Genewiz, China) analyses.

[2] = in vivo; set-up: species or system Wistar Han rats; details: both sexes, Wistar Han, rat, po, 500 mg/kg
Method: Twenty-nine male and 29 female Wistar Han rats were assigned to 7 groups (4 main and 3 toxicokinetic (TK) groups), with 5 rats/sex/group in the main groups and […] in TK groups. Dose formulations were administered twice daily by oral gavage at 100, 300, and 1,000 mg/kg/day (50, 150, and 500 mg/kg/dose) for 14 consecutive days, with a vehicle control group dosed in the same manner. Toxicity was assessed based on clinical signs, daily body weights, food consumption, organ weights, clinical, gross, and anatomic pathology.

[3] = system: PAG, DRG and PFC transcriptomes; experiment: Transcriptomic analysis (RNA-seq) of terminal tissues, OIPN prevention study; assay type: in vivo, male Sprague Dawley rats
Source text: Pain measurements were made on Days 5/6 (when neuropathy has normally developed) and at the end of the study. […] Terminal plasma samples were taken for bioanalysis and proteomics (Somalogic). Brain regions involved in pain processing, that is, prefrontal cortex (PFC), periaqueductal grey (PAG), whole spinal cords (SC), and L4-L6 dorsal root ganglia, were collected for lipidomic and genomic (Genewiz, China) analyses. Sequencing (Illumnia NovoSeq) was done at Genewiz (Shanghai, China). Sequence reads were trimmed using Trimmomatic (v.0.36). Reads were then aligned to the R. norvegicus Rnor6.0 reference genome (https://www.ncbi.nlm.nih.gov/assembly/GCF_000001895.5/) using the STAR aligner (v.2.5.2b) and unique gene hit counts were calculated using featureCounts from the Subread package (v.1.5.2). Differentially expressed genes were determined using limma 3.46.0. […] Visualisation was done using the EnhancedVolcano (1.7.10) package in R. Gene set enrichment analysis was carried out using the gprofiler2 package in R.

[4] = system: painful diabetic neuropathy; details: cited from earlier work
[5] = system: oxaliplatin-induced mechanical allodynia; experiment: 7-day treatment of established OIPN, paw withdrawal threshold; assay type: in vivo, male Sprague Dawley rats; details: 25 mg/kg BID PO 7 days, across Days 7 and 14, P < .05
Method: Male Sprague Dawley rats (150–210 g) were housed in groups of 4 in intra-ventilated Perspex home cages. Humidity, temperature (21 ± 1 °C), and lighting (light-dark cycle of 12:12 hours) were controlled and maintained in the home cages, with food and water available ad libitum. Rats acclimatised to the home cages for at least 1 week. All experiments were carried out according to the Animals (Scientific Procedures) Act, 1986 (U.K. Government Home Office). The study was performed under the Home Office project licence number PP0847012. OIPN was established with a single dose of OXA (10 mg/kg, IP).
Body weight was monitored throughout the study, and terminal plasma and whole brain samples were taken for bioanalysis.
Tactile allodynia (primary outcome measure) was assessed using paw withdrawal threshold (PWT), a measure of pain sensitivity. PWT was evaluated using calibrated von-Frey monofilaments (Touch-Test Sensory Evaluator; Scientific Marketing Associates) applied to the plantar surface of the left hind paw. PWT was determined by increasing and decreasing stimulus intensity and estimated using Dixon’s up-down method.[38],[39]
To acquire baseline readings, pain behaviour was assessed on 3 consecutive days (Days −3, −2, −1). […] NPB expressed as a percentage change from HBL was calculated as follows (HBL-NPB)/HBL*100. […]

[6] = Prevention of OIPN, body weight; assay type: in vivo, male Sprague Dawley rats; details: 10 mg/kg BID, P < .05
Source text: as §1

[7] = system: dorsal root ganglion lipids; experiment: Lipidomic analysis of terminal tissues, OIPN prevention study; assay type: in vivo, male Sprague Dawley rats; details: 25 mg/kg BID, versus vehicle, P = .03
Method: Pain measurements were made on Days 5/6 (when neuropathy has normally developed) and at the end of the study. […] Terminal plasma samples were taken for bioanalysis and proteomics (Somalogic). Brain regions involved in pain processing, that is, prefrontal cortex (PFC), periaqueductal grey (PAG), whole spinal cords (SC), and L4-L6 dorsal root ganglia, were collected for lipidomic and genomic (Genewiz, China) analyses. Lipid extraction from tissues was performed as previously described.[40] Samples were flash frozen in liquid nitrogen, weighed and transferred to a centrifuge tube with HPLC-grade methanol (Thermo Fisher Scientific, Fair Lawn, NJ). Tubes were spiked with 500 picomoles d8AEA (Cayman Chemical, Ann Arbor, MI). Samples were left on ice for 2 hours, homogenised and centrifuged at 19,000 g for 20 minutes at 20°C. […] Elution samples were then analysed by HPLC MS/MS as previously described.[40] 20 μL samples were run on an Agilent XDB-C18 reversed-phase analytical column and analysed using an Applied Biosystems API 3,000 triple quadrupole mass spectrometer with electrospray ionisation (Foster City, CA). […] Concentrations in mols/gram were adjusted according to extraction efficiency, as determined by d8AEA recovery. For each individual lipid species, samples were unblinded, fold-change compared to the vehicle was calculated and significance calculated by t-test (P < .05 and P < .1) in R.

[8] = target: FABP3 (Homo sapiens, UniProt P05413); experiment: Fluorescence displacement binding assay (DAUDA probe)
Method: Purified FABPs were incubated with 11-(dansylamino)undecanoic acid (DAUDA) (FABP3, FABP5) or 8-anilino-1-naphthalenesulfonic acid (ANS) (FABP7) in the presence or absence of FABP inhibitors (.01–200 μM) in the binding assay buffer. FABP4 binding was assessed using a commercially available kit (Cayman Chemical, Ann Arbor). In all cases, arachidonic acid (10 μM) was included to account for maximal probe displacement. Loss of fluorescence intensity was monitored with an F5 Filtermax Multi-Mode Microplate Reader (Molecular Devices, Sunnyvale) using the following excitation and emission wavelengths (DAUDA: ex./em.= 360/535 nm; ANS: ex./em. = 360/465 nm). Following background subtraction, the fluorescence intensity values were normalised and analyzed via a one-site binding model using the GraphPadPrism (version 9.2). Ki values were determined using the following equation: Ki= IC50/(1 + ([Probe]/Kd).

Sequence of FABP3 (P05413 whole entry, species assumed): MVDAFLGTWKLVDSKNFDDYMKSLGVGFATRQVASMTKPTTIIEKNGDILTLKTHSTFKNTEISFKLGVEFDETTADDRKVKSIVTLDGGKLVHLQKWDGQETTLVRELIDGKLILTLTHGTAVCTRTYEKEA

COc1ccccc1[C@@H]1[C@H](C(=O)O)[C@@H](c2ccccc2OC)[C@H]1C(=O)OC1Cc2ccccc2C1 [ART26.12, (+)–3-Indan-2-yloxycarbonyl-2,4-bis(2-methoxyphenyl)cyclobutanecarboxylic acid]
mean plasma levels on Day 15 ([1]; 10 mg/kg BID): 4.49 ± .99 µM
mean plasma levels on Day 15 ([1]; 25 mg/kg BID): 7.45 ± 1.58 µM
NOAEL at 14 days [2]: 1000 mg/kg/day
transcriptomic changes in PFC [3]: No significant changes
transcriptomic changes in DRG ([3]; P < .05, FC > 1.5): only glycine decarboxylase being significantly upregulated
number of significantly different genes in PAG ([3]; P < .05, log2FC > .58): 20 genes
effect on established painful diabetic neuropathy [4]: treats established painful diabetic neuropathy
PWT scores versus vehicle [5]: significantly higher PWT scores than vehicle
body weight on Day 5 versus Day 0 [6]: significantly higher body weight than Day 0
increase of N-docosahexaenoyl proline in DRG [7]: 9 fold
Ki [8]: 71.3 ± 2.4 µM
